Measurements reported in ChEMBL document CHEMBL1201862, “PubChem BioAssay data set” (2004).
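1) Cells in 96-well plates. 2) Compound, 48 h, 5 concentrations. 3) Linear interpolation between surrounding doses. 4) Unreached endpoint = highest concentration. The concentration for 50% growth inhibition is given as GI50.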 Calls of active or inactive are those of the source. No stated cut-off is given here; in the data, active = GI50 up to about 1.1 µM and inactive = higher.

Legend:
Test in all cases: growth of human tumour cells (NCI), 48 h
[1] = test system: NCI-H460
[2] = test system: CAKI-1
[3] = test system: HCC 2998
[4] = test system: UACC-257
[5] = test system: EKVX
[6] = test system: SNB-19
[7] = test system: TK-10
[8] = test system: HL-60
[9] = test system: UACC-62
[10] = test system: DU-145
[11] = test system: HCT-116
[12] = test system: OVCAR-4
[13] = test system: KM12
[14] = test system: PC-3
[15] = test system: SK-MEL-5
[16] = test system: A498
[17] = test system: NCI-H522
[18] = test system: COLO 205
[19] = test system: SR
[20] = test system: CCRF-CEM

| Compound | GI50 [1] | GI50 [2] | GI50 [3] | GI50 [4] | GI50 [5] | GI50 [6] | GI50 [7] | GI50 [8] | GI50 [9] | GI50 [10] | GI50 [11] | GI50 [12] | GI50 [13] | GI50 [14] | GI50 [15] | GI50 [16] | GI50 [17] | GI50 [18] | GI50 [19] | GI50 [20] |
| --- | --- | --- | --- | --- | --- | --- | --- | --- | --- | --- | --- | --- | --- | --- | --- | --- | --- | --- | --- | --- |
| O=C(NCCN(CCNC(=O)c1cccc(O)c1O)CCNC(=O)c1cccc(O)c1O)c1cccc(O)c1O [TRENCAM] | 4.38 µM (inactive) | 21.9 µM (inactive) | 3.4 µM (inactive) | 19.5 µM (inactive) | 41.4 µM (inactive) | 5.22 µM (inactive) | > 56.1 µM (inactive) | 8.02 µM (inactive) | 4.78 µM (inactive) | 6.98 µM (inactive) | 4.2 µM (inactive) | 0.578 µM (active) | 4.4 µM (inactive) | 11.4 µM (inactive) | 2.75 µM (inactive) | 51.9 µM (inactive) | 0.826 µM (active) | 5.15 µM (inactive) | – | – |
| COC(=O)c1c(CC(=O)OC(C)C)cc2n(c1=O)Cc1c-2nc2ccccc2c1OC | > 100 µM (inactive) | > 100 µM (inactive) | > 100 µM (inactive) | > 100 µM (inactive) | > 100 µM (inactive) | > 100 µM (inactive) | > 100 µM (inactive) | > 100 µM (inactive) | > 100 µM (inactive) | – | > 100 µM (inactive) | > 100 µM (inactive) | – | – | > 100 µM (inactive) | > 100 µM (inactive) | > 100 µM (inactive) | > 100 µM (inactive) | 33.8 µM (inactive) | > 100 µM (inactive) |
| CNC(=O)c1nnn(Cc2ccccc2)c1S | > 100 µM (inactive) | > 100 µM (inactive) | > 100 µM (inactive) | > 100 µM (inactive) | > 100 µM (inactive) | > 100 µM (inactive) | > 100 µM (inactive) | – | > 100 µM (inactive) | > 100 µM (inactive) | > 100 µM (inactive) | > 100 µM (inactive) | > 100 µM (inactive) | > 100 µM (inactive) | > 100 µM (inactive) | – | – | > 100 µM (inactive) | – | > 100 µM (inactive) |
| CN(C)C(=O)OC(Cn1cncn1)(Cn1cncn1)c1ccc(Cl)cc1Cl | > 100 µM (inactive) | > 100 µM (inactive) | > 100 µM (inactive) | > 100 µM (inactive) | > 100 µM (inactive) | > 100 µM (inactive) | > 100 µM (inactive) | > 100 µM (inactive) | – | > 100 µM (inactive) | – | > 100 µM (inactive) | > 100 µM (inactive) | > 100 µM (inactive) | > 100 µM (inactive) | > 100 µM (inactive) | > 100 µM (inactive) | > 100 µM (inactive) | – | > 100 µM (inactive) |
| COc1ccc(C2[C@H]3C(=O)N(c4ccc(Cc5ccc(N6C(=O)[C@@H]7ON(c8ccccc8)C(c8ccc(OC)cc8)[C@@H]7C6=O)cc5)cc4)C(=O)[C@H]3ON2c2ccccc2)cc1 (some centres not stated) | > 100 µM (inactive) | > 100 µM (inactive) | > 100 µM (inactive) | > 100 µM (inactive) | > 100 µM (inactive) | > 100 µM (inactive) | > 100 µM (inactive) | > 100 µM (inactive) | > 100 µM (inactive) | – | > 100 µM (inactive) | > 100 µM (inactive) | > 100 µM (inactive) | – | 96.6 µM (inactive) | > 100 µM (inactive) | > 100 µM (inactive) | > 100 µM (inactive) | > 100 µM (inactive) | > 100 µM (inactive) |
| C[N+](C)(C)CC(=O)N/N=C(/Cc1nc2c3c(ccc2nc1O)C(=O)c1ccccc1C3=O)C(=O)Nc1ccc(Cl)c(Cl)c1 | 40.7 µM (inactive) | 15.5 µM (inactive) | 76.9 µM (inactive) | > 100 µM (inactive) | 13.1 µM (inactive) | – | 39.1 µM (inactive) | 8.15 µM (inactive) | 41.6 µM (inactive) | – | 43.3 µM (inactive) | 87.9 µM (inactive) | 19.7 µM (inactive) | – | 36.6 µM (inactive) | 33.7 µM (inactive) | 22.9 µM (inactive) | > 100 µM (inactive) | 16 µM (inactive) | 4.16 µM (inactive) |
| COc1ccc2ccccc2c1C1NC(=O)c2ccccc2N1 (configuration not stated) | 1.26 µM (inactive) | 2.62 µM (inactive) | 1.95 µM (inactive) | 20.8 µM (inactive) | 2.51 µM (inactive) | 2.84 µM (inactive) | 5.15 µM (inactive) | 0.0518 µM (active) | 0.455 µM (active) | 1.53 µM (inactive) | 0.614 µM (active) | – | 0.733 µM (active) | 0.519 µM (active) | 0.384 µM (active) | 1.3 µM (inactive) | 1.54 µM (inactive) | 1.87 µM (inactive) | – | 0.711 µM (active) |
| N=S(c1ccccc1[N+](=O)[O-])c1ccccc1[N+](=O)[O-] | – | 2.07 µM (inactive) | 3.4 µM (inactive) | 2.33 µM (inactive) | 5.04 µM (inactive) | 9.33 µM (inactive) | 3.84 µM (inactive) | 0.933 µM (active) | 3.45 µM (inactive) | 2.64 µM (inactive) | 1.23 µM (inactive) | 0.914 µM (active) | 3.34 µM (inactive) | 1.46 µM (inactive) | 1.78 µM (inactive) | 28 µM (inactive) | 0.494 µM (active) | 1.3 µM (inactive) | – | 1.04 µM (active) |
| COc1ccc2nc3cc(Cl)ccc3c(Sc3ccc([N+](=O)[O-])cc3)c2c1 | > 10 µM (inactive) | > 10 µM (inactive) | > 10 µM (inactive) | > 10 µM (inactive) | > 10 µM (inactive) | > 10 µM (inactive) | > 10 µM (inactive) | > 100 µM (inactive) | > 10 µM (inactive) | – | > 10 µM (inactive) | > 10 µM (inactive) | > 10 µM (inactive) | – | > 10 µM (inactive) | > 10 µM (inactive) | > 10 µM (inactive) | > 10 µM (inactive) | > 10 µM (inactive) | > 10 µM (inactive) |
| CC(C)(C)CC(C)(C)c1cc(O)c(O)c(CN2CCCCC2)c1 | 11.7 µM (inactive) | 14.2 µM (inactive) | 10.6 µM (inactive) | 13.3 µM (inactive) | 12.7 µM (inactive) | 15.3 µM (inactive) | 16.1 µM (inactive) | 13.3 µM (inactive) | 16.3 µM (inactive) | 14.5 µM (inactive) | 15.3 µM (inactive) | 19.2 µM (inactive) | 17.5 µM (inactive) | 13.9 µM (inactive) | 15.6 µM (inactive) | 14.3 µM (inactive) | 10.8 µM (inactive) | 12.7 µM (inactive) | – | – |
| C/C(=N\NC(=N)N)C(CN1CCCCC1)C(c1ccccc1)c1c(O)c2ccccc2oc1=O (configuration not stated) | – | > 100 µM (inactive) | > 100 µM (inactive) | > 100 µM (inactive) | > 100 µM (inactive) | > 100 µM (inactive) | > 100 µM (inactive) | > 100 µM (inactive) | > 100 µM (inactive) | – | > 100 µM (inactive) | > 100 µM (inactive) | – | – | – | > 100 µM (inactive) | 43.6 µM (inactive) | > 100 µM (inactive) | > 100 µM (inactive) | > 100 µM (inactive) |
| O=C(Cc1nc2ccccc2c(=O)n1-c1c(Cl)cccc1Cl)c1ccncc1 | 21.4 µM (inactive) | 23.6 µM (inactive) | 22.5 µM (inactive) | 22.3 µM (inactive) | 61.5 µM (inactive) | 31.4 µM (inactive) | > 10 µM (inactive) | 12 µM (inactive) | 22.7 µM (inactive) | – | 17.8 µM (inactive) | 27.5 µM (inactive) | 15.8 µM (inactive) | – | 15.9 µM (inactive) | 30.5 µM (inactive) | 19.6 µM (inactive) | 17.8 µM (inactive) | 17.8 µM (inactive) | 16.7 µM (inactive) |
| CC(C)(c1ccccc1)c1ccc(Oc2ccc(C#N)c(C#N)c2)cc1 | > 10 µM (inactive) | > 10 µM (inactive) | > 10 µM (inactive) | > 10 µM (inactive) | 46.1 µM (inactive) | 34.6 µM (inactive) | > 10 µM (inactive) | 20.5 µM (inactive) | > 10 µM (inactive) | – | 36.6 µM (inactive) | 7.82 µM (inactive) | > 10 µM (inactive) | – | 20.7 µM (inactive) | > 10 µM (inactive) | 9.06 µM (inactive) | > 10 µM (inactive) | 6.41 µM (inactive) | 56.5 µM (inactive) |
| Clc1ncnc2c1ncn2CCCCCCCCCCCCn1cnc2c(Cl)ncnc21 | 16.4 µM (inactive) | 3.4 µM (inactive) | 6.7 µM (inactive) | 2.86 µM (inactive) | 16.7 µM (inactive) | 14.7 µM (inactive) | 22.1 µM (inactive) | 2.7 µM (inactive) | 13.9 µM (inactive) | – | 10.7 µM (inactive) | 11.1 µM (inactive) | 15.5 µM (inactive) | – | 4.83 µM (inactive) | 12.2 µM (inactive) | 1.48 µM (inactive) | 15.6 µM (inactive) | 1.06 µM (active) | 1.36 µM (inactive) |
| CCCCCCCCCCCC1CC(=O)NCCCN(C)CCCCN(C)CCCN1C (configuration not stated) [BUDMUNCHIAMINE A] | 1.36 µM (inactive) | 2.08 µM (inactive) | 1.74 µM (inactive) | 1.68 µM (inactive) | 1.78 µM (inactive) | 1.7 µM (inactive) | 1.73 µM (inactive) | 0.395 µM (active) | 1.68 µM (inactive) | – | 1.55 µM (inactive) | 1.74 µM (inactive) | 1.58 µM (inactive) | – | 1.97 µM (inactive) | 1.67 µM (inactive) | 1.81 µM (inactive) | 1.53 µM (inactive) | 0.23 µM (active) | 0.156 µM (active) |
